Measured values taken from ChEMBL document CHEMBL4004882, “Synthesis of novel trifluoromethyl-substituted spiro-[chromeno[4,3-d]pyrimidine-5,1'-cycloalkanes], and evaluation of their analgesic effects in a mouse pain model” (Bioorg Med Chem Lett, 2017).
Calls of active or inactive are those of the source. The calls are words filed in the database; no cut-off is given here.

Experiments:
Mus musculus [1] = experiment: Antinociceptive activity in Swiss mouse assessed as inhibition of capsaicin-induced nociception at 100 mg/kg, po administered 1 hr followed by capsaicin challenge measured for 5 mins relative to vehicle-treated control; format: functional
Mus musculus [2] = experiment: Antinociceptive activity in po dosed Swiss mouse assessed as inhibition of CFA-induced mechanical allodynia after 2 hrs; format: functional; settings: read-out: ID50 (the source's name)
Mus musculus [3] = experiment: Antinociceptive activity in Swiss mouse assessed as inhibition of CFA-induced mechanical allodynia at 100 mg/kg, po after 2 hrs relative to vehicle-treated control; format: functional
Mus musculus [4] = experiment: Antinociceptive activity in Swiss mouse assessed as inhibition of CFA-induced mechanical allodynia at 300 mg/kg, po after 2 hrs relative to vehicle-treated control; format: functional
Mus musculus [5] = experiment: Toxicity in Swiss mouse assessed as effect on spontaneous locomotor activity at 100 mg/kg, po after 1 hr by open field test; format: organism-based; settings: in vivo
Mus musculus [6] = experiment: Toxicity in Swiss mouse assessed as effect on forced locomotor activity at 100 mg/kg, po after 1 hr by rotarod test; format: organism-based; settings: in vivo
Mus musculus [7] = experiment: Antinociceptive activity in Swiss mouse assessed as inhibition of CFA-induced mechanical allodynia at 100 mg/kg, po measured over 6 hrs; format: functional, organism-based
Mus musculus [8] = experiment: Antinociceptive activity in Swiss mouse assessed as inhibition of CFA-induced mechanical allodynia at 100 mg/kg, po measured over 4 hrs; format: functional, organism-based

FC(F)(F)c1nc(-n2cccc2)nc2c1C1(CCCCCC1)Oc1ccccc1-2 was tested. Which inhibition (Mus musculus [1]) did it give?
Its inhibition is “Active”.

Which inhibition (Mus musculus [1]) does the source give for FC(F)(F)c1nc(-c2ccccc2)nc2c1C1(CCCC1)Oc1ccccc1-2 here?
Its inhibition is “Active”.

Which results are given for FC(F)(F)c1nc(-n2cccc2)nc2c1C1(CCCCC1)Oc1ccccc1-2?
ED50 (Mus musculus [2]): 422 mg/kg; inhibition in vivo at 100 mg/kg (Mus musculus [3]): ≤ 68%; Imax (Mus musculus [4]): 66%; Activity (Mus musculus [5]): Non-Toxic; Imax (Mus musculus [1]): 83%; Activity (Mus musculus [6]): Non-Toxic; inhibition (Mus musculus [7]): Active

For Nc1nc2c(c(C(F)(F)F)n1)C1(CCCC1)Oc1ccccc1-2, which inhibition (Mus musculus [1]) is on record?
The inhibition was “Active”.

Which inhibition (Mus musculus [1]) does the source give for Nc1nc2c(c(C(F)(F)F)n1)C1(CCCCCC1)Oc1ccccc1-2 here?
The inhibition was “Active”.

How did the ED50 (Mus musculus [2]) turn out when CC(C(=O)O)c1cccc(C(=O)c2ccccc2)c1 (stereo not given) [KETOPROFEN] was run?
The ED50 was 169 mg/kg.

And the inhibition in vivo at 100 mg/kg (Mus musculus [3])?
The inhibition in vivo at 100 mg/kg was at most 65%.

What about the Imax (Mus musculus [4]) of the same compound?
Its Imax is 75%.

And the inhibition (Mus musculus [8])?
Its inhibition is “Active”.

And the inhibition in vivo at 100 mg/kg (Mus musculus [1]; Mus musculus, Swiss, po)?
The inhibition in vivo at 100 mg/kg was 80%.

With FC(F)(F)c1nc(-n2cccc2)nc2c1C1(CCCC1)Oc1ccccc1-2 as the compound, how does the inhibition (Mus musculus [1]) read?
Its inhibition is “Active”.

FC(F)(F)c1nc(-c2ccccc2)nc2c1C1(CCCCC1)Oc1ccccc1-2 was tested. Which inhibition (Mus musculus [1]) did it give?
Its inhibition is “Active”.

For Nc1nc2c(c(C(F)(F)F)n1)C1(CCCCC1)Oc1ccccc1-2, which inhibition (Mus musculus [1]) is on record?
The inhibition was “Active”.

How did the inhibition (Mus musculus [1]) turn out when FC(F)(F)c1nc(-c2ccccc2)nc2c1C1(CCCCCC1)Oc1ccccc1-2 was run?
The inhibition was “Active”.
